≈ marks a conversion by molar mass, not a printed value. Like-named read-outs stand apart in the source and are kept apart here.
Tests used:
[1] = Log D measurement (n-octanol/PBS shake, LC-MS/MS); assay type: physicochemical; settings: pH 7.4, read-out: LogD7.4 (Oct/buff)
Procedure: Two replicates of test compounds (DMSO stock solution 10 mM, 2 μL/well) and QCs (DMSO 10 mM, 2 μL/well) were transferred from the storage tube to a 96-well cluster tube. Add buffer-saturated n-octanol ([…]) and n-octanol-saturated PBS (149 μL/well) to each well; vortex mix the cluster tube for 1 minute, mix by shaking on a plate shaker at 880 rpm for one hour, and then centrifuge at 4000 rpm for 10 minutes. Remove the cover pad, accurately measure a certain amount of n-octanol layer samples (4 μL/well) into a 96-well plate containing n-octanol internal standard diluent (796 μL/well); accurately measure a certain amount of buffer salt layer samples (30 μL/well) into a 96-well plate containing buffer internal standard diluent (570 μL/well); the dilution factor of the sample can be adjusted according to different properties of the sample. Samples were analyzed using a triple quadrupole mass spectrometer. The processed sample solution was analyzed by the fast isocratic elution and small column retention method, the concentration correction was carried out by dilution factor and internal standard, and the ratio of the corrected peak area was used to calculate the final result (Log D/Log P value).

[2] = tested on: rash caused by small molecule EGFR inhibitors; assay: Prevention of rash caused by small molecule EGFR inhibitors, topical ointment, rat model; assay type: in vivo, SD rats
Procedure, shortened: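 Female SD rats (~200 g, dorsal hair shaved, 10/group) dosed daily by gavage with small-molecule EGFR inhibitors; compound ointment or blank matrix applied once daily to ~3 cm×3 cm of back, left 4 h, then wiped off. Repeated until obvious rash in controls; control rate = % of treated rats with milder rash than controls.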

[3] = Plasma stability, human plasma; assay type: in vitro ADME, Humans; settings: 37° C.
Procedure: (§1) In addition, the plasma stability of these compounds was determined. Briefly, the determination method comprises the following steps: • 1) Thaw the frozen mixed plasma in a 37° C. water bath before testing, and then centrifuge at 4000 rpm for 5 min to remove blood clots; • 2) Add 98 μL blank plasma into each well of the 96-well reaction plate; • 3) In addition to the blank samples, add 2 μL of 100 μM working solution of test compound into each well; • 3) Incubate the reaction plate at 37° C. and start timing. Incubation times were 0, 10, 30, 60 and 120 minutes, respectively, with two replicate wells at each time point; • 4) Terminate the incubation at the corresponding time point, and add 400 μL of acetonitrile solution containing 200 ng/mL tolbutamide and 200 ng/mL labetalol to precipitate proteins; • 5) Shake each plate for 20 minutes, then centrifuge at 4000 rpm for 20 minutes, transfer 50 μL of supernatant to another 96-well plate, and dilute each sample with 100 μL of pure water; • 6) Analyze the sample by LC-MS/MS.
The experiment results are as follows, and it can be seen from the test results that the selected compounds are easily metabolized to the target compound in human plasma.

[4] = Plasma stability, mini pig plasma; assay type: in vitro ADME, Mini Pigs; settings: 37° C.
Procedure: as §1

[5] = tested on: skin contact delayed-type hypersensitivity; assay: Skin contact delayed-type hypersensitivity (DNFB) response test, ear swelling, topical ointment; assay type: in vivo; settings: topical to ears, DNFB DTH, Balb/c mice, compared to blank ointment
Text: Therapeutic Effect of Topical Administration of Compounds of the Present Application in Skin Contact Delayed-Type Hypersensitivity Response Test in Mice Delayed-type hypersensitivity (DTH) response in mouse skin is considered to be an effective model for clinical contact dermatitis and other T cell-mediated cutaneous immune diseases, such as atopic dermatitis and psoriasis. The DTH in mice shares the common features with these cutaneous immune diseases, including immunoinfiltration with an increase of inflammatory cytokines and hyperproliferation of keratinocytes. Balb/c mice were sensitized by topical administration of the antigen 2,4-dinitrofluorobenzene (DNFB) to the shaved back of mice on Days 0 and 1. On Day 5, the thickness of the ears was measured using an engineering micrometer. The measurement result was recorded and used as a baseline. The animals were then challenged with a total of 20 μL of DNFB (10 μL for the internal pinna and 10 μL for the external pinna) topically dosed to both ears at a concentration of 0.2%. The ears were measured again 24-72 hours after challenge. The compound ointment of the present application was applied topically to the ears of the animals throughout the allergic and challenge periods (Days −1˜7) or before or throughout the challenge period (generally Days 4˜7). The therapeutic effect was expressed by a reduction in ear swelling compared to that of the blank ointment. The compound causing a reduction of 20% or more was considered effective. Table 5 lists the skin contact delayed-type hypersensitivity experiment results in mice treated with the compound of the present application.

[6] = Thermodynamic solubility assay (PBS pH 6.5; isopropyl myristate); assay type: physicochemical; settings: thermodynamic from solid
Procedure: Thermodynamic Solubility Assay
Weigh not less than 2 mg of the sample powder into a Whatman Mini-UniPrep vial. If it is required to test the thermodynamic solubility of samples in multiple buffers, a separate vial is needed for each test; add 450 μL of buffer to each Whatman Mini-UniPrep vial, respectively; after that, install the piston cap of Whatman Mini-UniPrep and press it above the liquid level, so that the filter is in contact with the buffer during shaking; shake the solubility sample by vortexing for 1 minute.
Inject 3 UV standard solutions from low to high concentrations into the HPLC, then inject the diluent and supernatant of the test compound, with two replicates of test sample; and integrate the UV peaks. Simulate a standard curve and calculate the thermodynamic solubility of the sample.

logD [1]: 0.23
half-life at 2 µM [3]: 1.9 min
% Retained ([3]; 0 min): 100.0%
% Retained ([3]; 10 min): 2.6%
% Retained ([3]; 30 min): 0.0%
% Retained ([3]; 60 min): 0.0%
% Retained ([3]; 120 min): 0.0%
half-life at 2 µM [4]: 9.1 min
% Retained ([4]; 0 min): 100.0%
% Retained ([4]; 10 min): 57.3%
% Retained ([4]; 30 min): 13.5%
% Retained ([4]; 60 min): 1.3%
% Retained ([4]; 120 min): 0.0%
solubility thermodynamic at 24 h ([6]; aqueous buffer, PBS buffer pH 6.5, about 25° C., read-out: Thermodynamic Solubility pH = 6.5): > 4840 µg/mL
solubility thermodynamic at 24 h ([6]; oil or lipid, isopropyl myristate as vehicle, about 25° C., read-out: Thermodynamic Solubility in Isopropyl Myristate): 54.7 µg/mL (≈ 103 µM)
SMILES: COCCOCC(=O)OCCN(C)C(=O)n1ccc2c(N(C)[C@H]3CN(C(=O)CC#N)CC[C@H]3C)ncnc21 [Compound A18]
Control Rate ([2]; BPI-7711 60 mg/kg once a day, ointment 3.0 wt% once a day, 14 days): 70%
Control Rate ([2]; EAI045 80 mg/kg once a day, ointment 0.3 wt% once a day, 11 days): 30%
Control Rate ([2]; EAI045 80 mg/kg once a day, ointment 3.0 wt% once a day, 11 days): 70%
Control Rate ([2]; EAI045 80 mg/kg once a day, ointment 5.0 wt% once a day, 11 days): 90%
Control Rate ([2]; Zorifertinib 60 mg/kg once a day, ointment 3.0 wt% once a day, 12 days): 60%
Reduction Rate of Ear Swelling ([5]; ointment 0.1 wt%): 23%
Reduction Rate of Ear Swelling ([5]; ointment 1.0 wt%): 29%
Reduction Rate of Ear Swelling ([5]; ointment 5.0 wt%): 37%
Reduction Rate of Ear Swelling ([5]; ointment 10.0 wt%): 45%
